Data on 6 compounds can be found in PMC10124904, “Activation of Gcn2 by small molecules designed to be inhibitors” (The Journal of Biological Chemistry, 2023).

“And” between values parts separate entries of the source, which are not always exact repeats. Equal values may be shown once.

What all share (format): cell-based
Experiment [1] addresses T1, Gcn2 (Homo sapiens, UniProt Q9P2K8).
T1 construct: HEK293 cells expressing endogenous WT Gcn2 (End WT); endogenous in cells; host or cells: HEK293 (HEK293A with integrated P(AAREx6)-Luc; HEK293/HEK293T)
In words: P(AAREx6)-Luc Atf4 transcriptional activity reporter in HEK293 cells. The settings on record: for dose response of Atf4 activity (P(AAREx6)-Luc): 2× serial dilution from 78 nM to 20 μM. The procedure: HEK-derived cells were used in this study. HEK293T cells were obtained from American Type Culture Collection. HEK293A cells were purchased from Invitrogen. Cells were cultured in Dulbecco's modified Eagle's medium (DMEM) (Corning 10-013-CV) supplemented with 10% (vol/vol) fetal bovine serum (Corning 35-010-CV), 100 U/ml penicillin, and 0.1 mg/ml streptomycin (Hyclone SV30010), hereafter referred to as DMEM complete, at 37 °C in 5% CO2 humidified incubator. […] To create cells stably expressing a luciferase reporter for Atf4 transcription activity, HEK293A cells were transduced with a lentivirus encoding an Atf4 transcription reporter (P(AAREx6)-Luc), which consists of six copies of C/ebp-Atf4 consensus binding sequence (5′-[…]-3′) upstream of a minimal promoter followed by the firefly luciferase coding sequence. Selection of the stable expression of the luciferase reporter was selected in DMEM complete supplemented with 1 μg/ml puromycin.
For transcriptional reporter assays, HEK293-P(AAREx6)-Luc cells were seeded into 96-well plate at 10,000 cells/well and cultured in DMEM complete at 37 °C with 5% CO2 overnight. After 24 h, cells were treated with HF or Gcn2iB, as indicated. After 6 h of culture, the media was replaced with 1:1 dilution of DMEM complete to Bio-Glo luciferase assay reagent (Promega Cat # G7940). The assay plate was incubated at room temperature for 15 min at 200 rpm on rotary plate shaker and then luminescence was read on BioTek Synergy H1 microplate reader using 1 s integration time and gain setting between 135 and 200. Luciferase activity was measured as luminescence for each of three experiments per treatment.

For experiment [2], the target named is T1, Gcn2. In words: Immunoblot of ISR markers (p-Gcn2, p-eIF2α, Atf4) in HEK293 cells with endogenous Gcn2 (End. WT). (In western blotting, separated proteins are transferred to a membrane and probed.)
Experiment [3] deals with T2, Flag-Gcn2 M802F (Homo sapiens, UniProt Q9P2K8, M802F).
T2 construct: Transomic Technologies) was inserted into pCDNA5; expressed in transfected cells; host or cells: HEK293 Gcn2 KO cells, transient transfection
T2 sequence (Q9P2K8 whole entry M802F): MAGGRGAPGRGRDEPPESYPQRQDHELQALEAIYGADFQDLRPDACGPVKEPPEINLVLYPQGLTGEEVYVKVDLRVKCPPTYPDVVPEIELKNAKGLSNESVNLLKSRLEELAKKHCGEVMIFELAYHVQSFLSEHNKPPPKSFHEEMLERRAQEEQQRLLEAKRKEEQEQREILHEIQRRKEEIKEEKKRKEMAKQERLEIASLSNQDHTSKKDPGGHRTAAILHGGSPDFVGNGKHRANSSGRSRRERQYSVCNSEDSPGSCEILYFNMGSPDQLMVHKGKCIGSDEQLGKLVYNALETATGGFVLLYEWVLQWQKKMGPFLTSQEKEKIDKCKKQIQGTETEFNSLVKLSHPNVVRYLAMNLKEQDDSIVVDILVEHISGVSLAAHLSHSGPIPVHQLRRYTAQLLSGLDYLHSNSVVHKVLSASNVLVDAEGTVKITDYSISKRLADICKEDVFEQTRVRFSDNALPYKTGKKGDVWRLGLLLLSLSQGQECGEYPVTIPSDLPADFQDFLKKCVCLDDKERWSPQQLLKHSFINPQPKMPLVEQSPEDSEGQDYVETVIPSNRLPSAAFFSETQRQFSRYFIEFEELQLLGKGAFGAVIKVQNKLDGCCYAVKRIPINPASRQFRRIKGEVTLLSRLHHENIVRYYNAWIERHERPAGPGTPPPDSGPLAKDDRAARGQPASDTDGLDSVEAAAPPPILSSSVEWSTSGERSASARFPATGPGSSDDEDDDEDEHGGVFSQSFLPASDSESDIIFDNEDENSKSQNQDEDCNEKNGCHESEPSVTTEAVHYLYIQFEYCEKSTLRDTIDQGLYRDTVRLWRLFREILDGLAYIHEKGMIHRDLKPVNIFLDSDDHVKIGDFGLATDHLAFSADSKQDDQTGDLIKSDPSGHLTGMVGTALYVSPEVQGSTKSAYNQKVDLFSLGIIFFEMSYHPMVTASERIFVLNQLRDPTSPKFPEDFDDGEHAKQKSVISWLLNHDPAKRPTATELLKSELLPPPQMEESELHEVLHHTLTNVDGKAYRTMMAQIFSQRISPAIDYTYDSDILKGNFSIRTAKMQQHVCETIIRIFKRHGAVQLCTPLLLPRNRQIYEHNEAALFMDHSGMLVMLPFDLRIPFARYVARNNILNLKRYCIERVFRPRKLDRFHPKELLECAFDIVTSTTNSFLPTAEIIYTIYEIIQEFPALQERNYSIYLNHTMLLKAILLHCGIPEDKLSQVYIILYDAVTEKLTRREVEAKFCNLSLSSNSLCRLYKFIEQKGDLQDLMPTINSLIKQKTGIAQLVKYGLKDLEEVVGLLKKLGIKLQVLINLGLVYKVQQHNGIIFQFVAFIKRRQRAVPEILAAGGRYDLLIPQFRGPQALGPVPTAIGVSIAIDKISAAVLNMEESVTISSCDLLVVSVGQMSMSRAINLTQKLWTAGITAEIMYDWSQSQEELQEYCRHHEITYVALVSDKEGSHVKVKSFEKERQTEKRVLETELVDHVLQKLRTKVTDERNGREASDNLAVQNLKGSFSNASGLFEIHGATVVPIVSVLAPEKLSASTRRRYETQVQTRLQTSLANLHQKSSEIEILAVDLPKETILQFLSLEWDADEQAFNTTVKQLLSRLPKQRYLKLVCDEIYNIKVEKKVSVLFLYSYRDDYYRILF
Nature of the experiment: Atf4-Luc translational reporter, Gcn2 KO HEK293 cells expressing Flag-Gcn2 M802F. Conditions: Gcn2iB concentrations up to 4 μM, 6 h. The source says: (§1) The human Gcn2 coding sequence from pENTR223-1 Gcn2 (NM_001013703; Transomic Technologies) was inserted into pCDNA5 to create an amino-terminal 3× flag tag fusion with Gcn2 by using an In-Fusion HD cloning kit and a three-way cloning reaction method. The resulting plasmid pCDNA5-Gcn2, referred to in the text as Flag-Gcn2, was used as a template to construct the mutant versions detailed in Table 1 by site-directed mutagenesis using an In-Fusion HD cloning kit (Takara Bio). The Gcn2 expressing plasmid was introduced transiently into the HEK293-Gcn2 KO cells as described in the following complementation section. Plasmid pMSCV-Gadd34-puro contains the human Gadd34 (PPP1R15A, NM_014330.5) gene subcloned into the NcoI/EcoRI sites of the retroviral vector pMSCV-puro ([24]).
(§2) For translational reporter assays, HEK293-Gcn2 KO cells were cotransfected with WT or mutant Gcn2 and the reporter Atf4-Luc and nano-luciferase plasmids and then treated with HF or Gcn2iB. Gcn2 activity was measured in a dual luciferase assay. To perform this experiment, HEK293-Gcn2 KO cells were seeded into 12-well plates at 50,000 cells/well. […] The Atf4-Luc and nano-luciferase signals were measured with Nano-Glo Dual-Luciferase Reporter Assay kit (Promega Cat #N1620) using a Turner Biosystems 20/20 luminometer. […]

For experiment [4], the target named is T3, Flag-Gcn2 WT (Homo sapiens, UniProt Q9P2K8).
T3 construct: Transomic Technologies) was inserted into pCDNA5; expressed in transfected cells; host or cells: HEK293 Gcn2 KO cells, transient transfection of pCDNA5-Gcn2
T3 sequence (Q9P2K8 whole entry): as the sequence (Q9P2K8 whole entry M802F) above, with F802M counted along it
In words: Atf4-Luc translational reporter, Gcn2 KO HEK293 cells expressing Flag-Gcn2 WT. The settings on record: 50 nM Gcn2iB vs vehicle, 6 h.
Source text: as §1, §2

Experiment [5] has as its target T4, Flag-Gcn2 M802V (Homo sapiens, UniProt Q9P2K8, M802V).
T4 construct: Transomic Technologies) was inserted into pCDNA5; expressed in transfected cells; host or cells: HEK293 Gcn2 KO cells, transient transfection
Nature of the experiment: Atf4-Luc translational reporter, Gcn2 KO HEK293 cells expressing Flag-Gcn2 M802V. Conditions: 4 nM Gcn2iB, 6 h.
Source text: as §1, §2

For experiment [6], the target named is T5, Flag-Gcn2 T899A (Homo sapiens, UniProt Q9P2K8, T899A).
T5 construct: Transomic Technologies) was inserted into pCDNA5; expressed in transfected cells; host or cells: HEK293 Gcn2 KO cells, transient transfection
T5 sequence (Q9P2K8 whole entry T899A): as the sequence (Q9P2K8 whole entry M802F) above, with F802M, T899A counted along it
In words: Atf4-Luc translational reporter, Gcn2 KO HEK293 cells expressing Flag-Gcn2 T899A. The settings on record: 6 h; for increase in Atf4-Luc activity: T899A Gcn2, 50 nM Gcn2iB, 1 μM neratinib, 2 μM dovitinib or 2 μM dabrafenib.
Source text: as §1
(§3) For translational reporter assays, HEK293-Gcn2 KO cells were cotransfected with WT or mutant Gcn2 and the reporter Atf4-Luc and nano-luciferase plasmids and then treated with HF or Gcn2iB. Gcn2 activity was measured in a dual luciferase assay. To perform this experiment, HEK293-Gcn2 KO cells were seeded into 12-well plates at 50,000 cells/well. […] For experiments with Gadd34 expression, 100 ng of vector control or Gadd34 expression plasmid was included in the transfection. […] The Atf4-Luc and nano-luciferase signals were measured with Nano-Glo Dual-Luciferase Reporter Assay kit (Promega Cat #N1620) using a Turner Biosystems 20/20 luminometer. Firefly luciferase activity was normalized to nano-luciferase control for each of three biological replicates.

For experiment [7], the target named is T1, Gcn2. In words: Atf4-Luc translational reporter in HEK293 cells (endogenous Gcn2). The settings on record: 6 h.
Experiment [8] concerns the target T6, Flag-Gcn2 M2 (F1143L/R1144L) (Homo sapiens, UniProt Q9P2K8, F1143L/R1144L).
T6 construct: Transomic Technologies) was inserted into pCDNA5; expressed in transfected cells; host or cells: HEK293 Gcn2 KO cells, transient transfection
In words: Atf4-Luc translational reporter, Gcn2 KO HEK293 cells expressing Flag-Gcn2 M2. Conditions: 50 nM Gcn2iB, 1 μM neratinib, 2 μM dovitinib or 2 μM dabrafenib, 6 h.
Source text: as §1, §2

Experiment [9] has as its target T7, Flag-Gcn2 K619A (Homo sapiens, UniProt Q9P2K8, K619A).
T7 construct: Transomic Technologies) was inserted into pCDNA5; expressed in transfected cells; host or cells: HEK293 Gcn2 KO cells, transient transfection
In words: Atf4-Luc translational reporter, Gcn2 KO HEK293 cells expressing Flag-Gcn2 K619A. The settings on record: 50 nM Gcn2iB, 1 μM neratinib, 2 μM dovitinib or 2 μM dabrafenib, 6 h.
Source text: as §1, §3

The mark [10] stands for this setting: Gcn2iB pretreatment 30 min, then 12.5 nM HF 6 h.
Where [11] appears, read: 25 nM HF, time course up to 6 h.
Setting [12] is: 2 μM tunicamycin, 6 h, immunoblot.

Usually IC50 stands for the concentration at which inhibition is half-maximal.

T7 sequence (Q9P2K8 whole entry K619A): as the sequence (Q9P2K8 whole entry M802F) above, with K619A, F802M counted along it
T1 sequence (Q9P2K8 whole entry): as the sequence (Q9P2K8 whole entry M802F) above, with F802M counted along it
T6 sequence (Q9P2K8 whole entry F1143L/R1144L): as the sequence (Q9P2K8 whole entry M802F) above, with F802M, F1143L, R1144L counted along it
T4 sequence (Q9P2K8 whole entry M802V): as the sequence (Q9P2K8 whole entry M802F) above, with F802V counted along it

In the case of `O=C(COc1ccc(Cl)c(F)c1)NC12CC(NC(=O)c3cnc(C(F)F)cn3)(C1)C2` [2B-Act], the “effect on biphasic induction of luciferase activity by Gcn2iB” value in experiment [1] (pretreated 30 min with 1 μM A-92 or 2 μM 2B-Act, then Gcn2iB 6 h) is “ablated”. Besides, the “effect of cotreatment on Gcn2iB-induced p-eIF2α and Atf4 levels” value in experiment [2] (1 μM A-92 or 2 μM 2B-Act pretreatment 30 min, then 50 nM Gcn2iB 6 h) was “lowered p-eIF2α and Atf4 levels”.

As to `COc1ncc(Cl)cc1S(=O)(=O)Nc1ccc(F)c(C#Cc2cnc(N)nc2)c1F` [Gcn2iB], in experiment [3], the “Atf4-Luc activity in Gcn2iB dose response” value is on record as “maintained the same level of Atf4-Luc activity”. Besides, the “Levels Atf4-Luc, fold change upon treatment” value in [4] was 2.7 fold and 3 fold; in experiment [6] (50 nM Gcn2iB vs vehicle, Flag-Gcn2 T899A), 2.8 fold. In addition, in experiment [1] (25 nM HF + 2 μM Gcn2iB, 6 h), the “effect on HF-induced P(AAREx6)-Luc activity” value is reported as “sharply reduced”. Moreover, in experiment [1] (Gcn2iB only, absence of HF, 6 h), the “Gcn2iB concentration at peak induction of luciferase activity” value is reported as “about 32 nM”. Besides, the “peak induction of luciferase activity (P(AAREx6)-Luc)” value in experiment [1] (Gcn2iB only, absence of HF, 6 h, biphasic) was found to be 7.8 fold. Also, the half-inhibitory concentration (IC50) in [1] (Gcn2iB pretreatment 30 min, then 12.5 nM HF 6 h, read-out: IC50 for diminishing HF-induced P(AAREx6)-Luc luciferase signal) came to 73 nM. Moreover, the “increase in Atf4-Luc activity relative to untreated M802V cells” value in [5] was found to be 2 fold. The “increase in Atf4-Luc activity” value was “able to increase Atf4-Luc activity” in experiment [6], “able to increase Atf4-Luc activity” in [8] and “no increase” in experiment [9]. In addition, in experiment [2] (50 nM Gcn2iB time course up to 6 h, WT cells), the “time of maximal Atf4 expression” value is reported as 6 h. For the same compound, the “induction of p-eIF2α” value in [2] (50 nM Gcn2iB time course, WT cells, detected as early as 30 min) amounted to 2.7 fold. Besides, the “Gcn2iB concentration giving reductions in HF-induced Atf4” value in [2] (setting [10]) is not below 250 nM. For the same compound, in experiment [2] (setting [10]), the “Gcn2iB concentration giving reductions in HF-induced p-Gcn2” value is recorded as not below 62.5 nM. Further, in [2] (absence of HF, 6 h), the “Gcn2iB concentration above which p-Gcn2 was lowered below vehicle and Atf4 not appreciably induced” value is on record as “Above 250 nM”. Moreover, the “effect on HF-induced Atf4-Luc expression” value in experiment [7] (25 nM HF + 2 μM Gcn2iB) was “sharply diminished”.

Turning to `O=C(CC1NCCCC1O)Cn1cnc2cc(Br)c(Cl)cc2c1=O` (stereo not drawn) [HF, Halofuginone], the “increase in luciferase signal (P(AAREx6)-Luc)” value in [1] (12.5 nM HF, 6 h) is “approximately 30 fold”. Also, the “P(AAREx6)-Luc activity” value in experiment [1] (25 nM HF alone, 6 h) is “robust induction”. Further, in experiment [2] (setting [11]), the “time at which expression of Atf4 was enhanced” value was 1 h; the “time to increased p-Gcn2 and p-eIF2α” value is reported as not above 30 min. Further, the Atf4 levels entry in [2] (100 nM HF, 6 h, immunoblot) is on record as “significant reduction”. Further, the Atf4-Luc expression result in [7] (25 nM HF alone) is reported as “robust induction”.

Turning to `CN1CCN(c2ccc3nc(-c4c(N)c5c(F)cccc5[nH]c4=O)[nH]c3c2)CC1` [dovitinib], the “dose response of Atf4 activity (P(AAREx6)-Luc)” value in experiment [1] (6 h) is “biphasic induction”. Further, the “increase in Atf4-Luc activity” value in experiment [9] was “no increase”.

Turning to `CCOc1cc2ncc(C#N)c(Nc3ccc(OCc4ccccn4)c(Cl)c3)c2cc1NC(=O)/C=C/CN(C)C` [neratinib], the “dose response of Atf4 activity (P(AAREx6)-Luc)” value in experiment [1] (6 h) is “biphasic induction”. In addition, the “increase in Atf4-Luc activity” value in experiment [6] was “able to increase Atf4-Luc activity”; in [8], “able to increase Atf4-Luc activity”; in experiment [9], “no increase”.

For the compound tunicamycin, in [2] (setting [12]), the “p-eIF2α and Atf4” value is “induced p-eIF2α and Atf4”; the “phosphorylation of Gcn2 (T899)” value is listed as “minimal phosphorylation of Gcn2”.
